Source: ChEMBL document CHEMBL3046898, “Synthesis and characterization of flurbiprofen hydrazide derivatives as potential anti-HCV, anticancer and antimicrobial agents” (2013)
Activity calls are given as the source filed them. The rule behind the calls is not given here.

Tests used:
Micrococcus luteus [1] = assay: Antibacterial activity against Micrococcus luteus at 6.25 to 200 ug/ml after 24 hrs by microwell dilution method; format: functional, organism-based
Salmonella paratyphi [2] = assay: Antibacterial activity against Salmonella paratyphi at 6.25 to 200 ug/ml after 24 hrs by microwell dilution method; format: functional, organism-based; conditions: Salmonella enterica subsp. enterica serovar Paratyphi A
Micrococcus lylae [3] = assay: Antibacterial activity against Micrococcus lylae at 6.25 to 200 ug/ml after 24 hrs by microwell dilution method; format: functional, organism-based
Photorhabdus luminescens [4] = assay: Antibacterial activity against Photorhabdus luminescens at 10 mg/ml after 24 hrs by disc diffusion method; format: functional, organism-based
Photorhabdus luminescens [5] = assay: Antibacterial activity against Photorhabdus luminescens at 6.25 to 200 ug/ml after 24 hrs by microwell dilution method; format: functional, organism-based
Escherichia coli [6] = assay: Antibacterial activity against Escherichia coli at 6.25 to 200 ug/ml after 24 hrs by microwell dilution method; format: functional, organism-based
Klebsiella aerogenes [7] = assay: Antibacterial activity against Enterobacter aerogenes at 6.25 to 200 ug/ml after 24 hrs by microwell dilution method; format: functional, organism-based
Candida parapsilosis = assay: Antifungal activity against Candida parapsilosis at 10 mg/ml after 48 hrs by disc diffusion method; format: functional, organism-based
[8] = test system: Schwanniomyces occidentalis; assay: Antifungal activity against Schwanniomyces occidentalis at 10 mg/ml after 48 hrs by disc diffusion method; format: functional, organism-based
Micrococcus lylae [9] = assay: Antibacterial activity against Micrococcus lylae at 10 mg/ml after 24 hrs by disc diffusion method; format: functional, organism-based
Staphylococcus cohnii [10] = assay: Antibacterial activity against Staphylococcus cohnii at 10 mg/ml after 24 hrs by disc diffusion method; format: functional
Micrococcus luteus [11] = assay: Antibacterial activity against Micrococcus luteus at 10 mg/ml after 24 hrs by disc diffusion method; format: functional, organism-based
Nakaseomyces glabratus = assay: Antifungal activity against Candida glabrata at 10 mg/ml after 48 hrs by disc diffusion method; format: functional, organism-based
Salmonella paratyphi [12] = assay: Antibacterial activity against Salmonella paratyphi at 10 mg/ml after 24 hrs by disc diffusion method; format: functional, organism-based; conditions: Salmonella enterica subsp. enterica serovar Paratyphi A
Kluyveromyces marxianus = assay: Antifungal activity against Kluyveromyces marxianus at 10 mg/ml after 48 hrs by disc diffusion method; format: functional, organism-based
Staphylococcus aureus [13] = assay: Antibacterial activity against Staphylococcus aureus at 10 mg/ml after 24 hrs by disc diffusion method; format: functional
Proteus vulgaris [14] = assay: Antibacterial activity against Proteus vulgaris at 6.25 to 200 ug/ml after 24 hrs by microwell dilution method; format: functional, organism-based
Pseudomonas aeruginosa [15] = assay: Antibacterial activity against Pseudomonas aeruginosa at 6.25 to 200 ug/ml after 24 hrs by microwell dilution method; format: functional, organism-based
[16] = test system: Acinetobacter radioresistens; assay: Antibacterial activity against Acinetobacter radioresistens at 10 mg/ml after 24 hrs by disc diffusion method; format: functional, organism-based
Pichia membranifaciens = assay: Antifungal activity against Pichia membranifaciens at 10 mg/ml after 48 hrs by disc diffusion method; format: functional, organism-based
Hepacivirus hominis = assay: Inhibition of HCV N-terminal His-tagged NS5B RNA dependent RNA polymerase expressed in Escherichia coli DH5alpha using poly rA/U12 as primer at 200 uM after 60 mins by liquid scintillation counting
Klebsiella aerogenes [17] = assay: Antibacterial activity against Enterobacter aerogenes at 10 mg/ml after 24 hrs by disc diffusion method; format: functional, organism-based
Candida tropicalis = assay: Antifungal activity against Candida tropicalis at 10 mg/ml after 48 hrs by disc diffusion method; format: functional, organism-based
Staphylococcus aureus [18] = assay: Antibacterial activity against Staphylococcus aureus at 6.25 to 200 ug/ml after 24 hrs by microwell dilution assay; format: functional, organism-based
Candida albicans = assay: Antifungal activity against Candida albicans at 10 mg/ml after 48 hrs by disc diffusion method; format: functional, organism-based
Proteus vulgaris [19] = assay: Antibacterial activity against Proteus vulgaris at 10 mg/ml after 24 hrs by disc diffusion method; format: functional, organism-based
Escherichia coli [20] = assay: Antibacterial activity against Escherichia coli at 10 mg/ml after 24 hrs by disc diffusion method; format: functional, organism-based
[21] = test system: Acinetobacter radioresistens; assay: Antibacterial activity against Acinetobacter radioresistens at 6.25 to 200 ug/ml after 24 hrs by microwell dilution method; format: functional, organism-based
Aspergillus = assay: Antifungal activity against Aspergillus at 10 mg/ml after 72 hrs by disc diffusion method; format: functional, organism-based
Staphylococcus cohnii [22] = assay: Antibacterial activity against Staphylococcus cohnii at 6.25 to 200 ug/ml after 24 hrs by microwell dilution assay; format: functional, organism-based
Pseudomonas aeruginosa [23] = assay: Antibacterial activity against Pseudomonas aeruginosa at 10 mg/ml after 24 hrs by disc diffusion method; format: functional, organism-based

SMILES	Activity (Micrococcus luteus [1])	Activity (Salmonella paratyphi [2])	Activity (Micrococcus lylae [3])	Activity (Photorhabdus luminescens [4])	Activity (Photorhabdus luminescens [5])	Activity (Escherichia coli [6])	Activity (Klebsiella aerogenes [7])	Activity (Candida parapsilosis)	Activity [8]	Activity (Micrococcus lylae [9])	Activity (Staphylococcus cohnii [10])	Activity (Micrococcus luteus [11])	Activity (Nakaseomyces glabratus)	Activity (Salmonella paratyphi [12])	Activity (Kluyveromyces marxianus)	Activity (Staphylococcus aureus [13])	Activity (Proteus vulgaris [14])	Activity (Pseudomonas aeruginosa [15])	Activity [16]	Activity (Pichia membranifaciens)	other results
CC(C(=O)N/N=C/c1ccc([N+](=O)[O-])o1)c1ccc(-c2ccccc2)c(F)c1 (configuration not stated)	inactive	inactive	inactive	inactive	inactive	inactive	inactive	inactive	inactive	inactive	inactive	inactive	inactive	inactive	inactive	inactive	inactive	inactive	inactive	inactive	inhibition (Hepacivirus hominis): 8%; Activity (Klebsiella aerogenes [17]): inactive; Activity (Candida tropicalis): inactive; Activity (Staphylococcus aureus [18]): inactive; Activity (Candida albicans): inactive; Activity (Proteus vulgaris [19]): inactive; Activity (Escherichia coli [20]): inactive; Activity [21]: inactive; Activity (Aspergillus): inactive; Activity (Staphylococcus cohnii [22]): inactive; Activity (Pseudomonas aeruginosa [23]): inactive
CC(C(=O)NN1C(=O)CSC1c1cccc(F)c1)c1ccc(-c2ccccc2)c(F)c1 (configuration not stated)	inactive	inactive	inactive	inactive	inactive	inactive	inactive	inactive	inactive	inactive	inactive	inactive	inactive	inactive	inactive	inactive	inactive	inactive	inactive	inactive	inhibition (Hepacivirus hominis): 8%; Activity (Klebsiella aerogenes [17]): inactive; Activity (Candida tropicalis): inactive; Activity (Staphylococcus aureus [18]): inactive; Activity (Candida albicans): inactive; Activity (Proteus vulgaris [19]): inactive; Activity (Escherichia coli [20]): inactive; Activity [21]: inactive; Activity (Aspergillus): inactive; Activity (Staphylococcus cohnii [22]): inactive; Activity (Pseudomonas aeruginosa [23]): inactive
CC(C(=O)N/N=C/c1ccc(Cl)cc1)c1ccc(-c2ccccc2)c(F)c1 (configuration not stated)	inactive	inactive	inactive	inactive	inactive	inactive	inactive	inactive	inactive	inactive	inactive	inactive	inactive	inactive	inactive	inactive	inactive	inactive	inactive	inactive	inhibition (Hepacivirus hominis): 8%; Activity (Klebsiella aerogenes [17]): inactive; Activity (Candida tropicalis): inactive; Activity (Staphylococcus aureus [18]): inactive; Activity (Candida albicans): inactive; Activity (Proteus vulgaris [19]): inactive; Activity (Escherichia coli [20]): inactive; Activity [21]: inactive; Activity (Aspergillus): inactive; Activity (Staphylococcus cohnii [22]): inactive; Activity (Pseudomonas aeruginosa [23]): inactive
CC(C(=O)NNC(=S)Nc1ccccc1)c1ccc(-c2ccccc2)c(F)c1 (configuration not stated)	inactive	inactive	inactive	inactive	inactive	inactive	inactive	inactive	inactive	inactive	inactive	inactive	inactive	inactive	inactive	inactive	inactive	inactive	inactive	inactive	inhibition (Hepacivirus hominis): 8%; Activity (Klebsiella aerogenes [17]): inactive; Activity (Candida tropicalis): inactive; Activity (Staphylococcus aureus [18]): inactive; Activity (Candida albicans): inactive; Activity (Proteus vulgaris [19]): inactive; Activity (Escherichia coli [20]): inactive; Activity [21]: inactive; Activity (Aspergillus): inactive; Activity (Staphylococcus cohnii [22]): inactive; Activity (Pseudomonas aeruginosa [23]): inactive
CCCNC(=S)NNC(=O)C(C)c1ccc(-c2ccccc2)c(F)c1 (configuration not stated)	inactive	inactive	inactive	inactive	inactive	inactive	inactive	inactive	inactive	inactive	inactive	inactive	inactive	inactive	inactive	inactive	inactive	inactive	inactive	inactive	inhibition (Hepacivirus hominis): 8%; Activity (Klebsiella aerogenes [17]): inactive; Activity (Candida tropicalis): inactive; Activity (Staphylococcus aureus [18]): inactive; Activity (Candida albicans): inactive; Activity (Proteus vulgaris [19]): inactive; Activity (Escherichia coli [20]): inactive; Activity [21]: inactive; Activity (Aspergillus): inactive; Activity (Staphylococcus cohnii [22]): inactive; Activity (Pseudomonas aeruginosa [23]): inactive
CCNC(=S)NNC(=O)C(C)c1ccc(-c2ccccc2)c(F)c1 (configuration not stated)	inactive	inactive	inactive	inactive	inactive	inactive	inactive	inactive	inactive	inactive	inactive	inactive	inactive	inactive	inactive	inactive	inactive	inactive	inactive	inactive	inhibition (Hepacivirus hominis): 8%; Activity (Klebsiella aerogenes [17]): inactive; Activity (Candida tropicalis): inactive; Activity (Staphylococcus aureus [18]): inactive; Activity (Candida albicans): inactive; Activity (Proteus vulgaris [19]): inactive; Activity (Escherichia coli [20]): inactive; Activity [21]: inactive; Activity (Aspergillus): inactive; Activity (Staphylococcus cohnii [22]): inactive; Activity (Pseudomonas aeruginosa [23]): inactive
CC(C(=O)NN1C(=O)CSC1c1ccc([N+](=O)[O-])cc1)c1ccc(-c2ccccc2)c(F)c1 (configuration not stated)	inactive	inactive	inactive	inactive	inactive	inactive	inactive	inactive	inactive	inactive	inactive	inactive	inactive	inactive	inactive	inactive	inactive	inactive	inactive	inactive	inhibition (Hepacivirus hominis): 8%; Activity (Klebsiella aerogenes [17]): inactive; Activity (Candida tropicalis): inactive; Activity (Staphylococcus aureus [18]): inactive; Activity (Candida albicans): inactive; Activity (Proteus vulgaris [19]): inactive; Activity (Escherichia coli [20]): inactive; Activity [21]: inactive; Activity (Aspergillus): inactive; Activity (Staphylococcus cohnii [22]): inactive; Activity (Pseudomonas aeruginosa [23]): inactive
